Test results published in US20250073249A1, “STEROID COMPOUND, AND PREPARATION METHOD THEREFOR AND USE THEREOF” (SHANGHAI INSTITUTE OF MATERIA MEDICA, CHINESE ACADEMY OF …, priority 2022, published 2025).
Like-named read-outs stand apart in the source and are kept apart here.

Experiments:
[1] = In vivo pharmacokinetics in rats after oral gavage; details: male SD rats, PO 10 mg/kg
Description: Male SD rats were randomly divided into 6 groups, 3 rats per group. The rats were fasted but not water-deprived for 12-14 h one day before dosing. The test samples were then dissolved in a solvent of 5% DMSO+30% PEG400+65% (0.5% MC) and administered by gavage at 10 mg/kg. Food was provided 4 h after dosing. Blood samples (0.10 mL) were collected via the orbital sinus at 0, 15, 30 min, 1, 2, 4, 6, 8, and 24 h, with EDTA-K2 as anticoagulant. Blood samples were placed on ice after collection and centrifuged to separate plasma within 30 minutes (centrifugation conditions: 5000 rpm, 10 minutes, 4° C.). 50.0 μL of plasma sample (taken from −80° C. freezer, thawed naturally at room temperature and vortexed for 30 seconds) was added to a 1.5 mL centrifuge tube, followed by addition of 500 μL internal standard solution (methanol (TEDIA, HPLC grade), acetonitrile (TEDIA, HPLC grade), formic acid (FA, ACROS ORGANICS, HPLC grade), water was laboratory-made ultrapure water (100.0 ng·mL−1)). The mixture was vortexed for 60 seconds and centrifuged for 3 minutes (centrifugal force 12000 rpm). 100 μL of the supernatant was transferred to a 96-well injection plate containing an equal volume of water, mixed by shaking, and analyzed by LC-MS/MS with an injection volume of 10 μL. The data acquisition and control system software was Analyst 1.5.1 software (Applied Biosystem). The chromatographic sample peaks were integrated automatically. The ratio of sample peak area to internal standard peak area was used as an indicator for regression with sample concentration.
The pharmacokinetic parameters of representative compounds of the present invention were tested in male SD rats after oral gavage administration at 10 mg/kg according to the above conventional method to examine the pharmacokinetic characteristics of the compounds of the present invention in rats.

[2] = system: 22RV1 prostate cancer cells; assay: Anti-proliferative activity against resistant 22RV1 cells expressing AR-V7; type: cell-based; details: Homo sapiens; 22RV1 cells expressing AR-V7 splice variant; read-out: Antiproliferative activity IC50
Description: (§1) The cells were then digested with trypsin and counted using an automated cell counter to determine cell density. The cell suspension was diluted to the desired density in growth medium. Subsequently, 100 μL of the cell suspension was seeded into 96-well plates and incubated at 37° C. with 5% CO2 for 24 hours. 10 μL of drug solution (including 3-fold serial dilutions of compounds or DMSO) was added to each well, and the plates were incubated at 37° C. with 5% CO2 for 6 days. Prior to measurement, the assay plates were equilibrated to room temperature. 40 μL of CellTiter-Glo® reagent was added to each well. The plates were mixed on an orbital shaker for 2 minutes to induce cell lysis. After incubation at room temperature for 60 minutes to stabilize the luminescence signal, the plates were read on an Envision plate reader.
The experimental procedure was essentially the same as that for LNCaP cells.

[3] = system: LNCaP cells; assay: In vitro LNCaP cell proliferation inhibition test (CellTiter-Glo); type: cell-based; details: for Maximum Inhibition (%) / IC50: 6 days; for IC50: Homo sapiens, read-out: Anti-proliferative activity IC50; for Anti-proliferative activity, fold improvement compared to abiraterone: ratio to abiraterone IC50
Description: as §1

[4] = molecular target: T1, AR(F876L) (Homo sapiens, UniProt P10275, F877L); assay: Mutant AR antagonistic activity test, F876L (reporter gene in HEK293 cells); type: cell-based; details: DHT 10 nM, 24 hours, read-out: F876L IC50(nM) 2nd gen AR antagonist resistant mutation
T1 construct: expressed in transfected cells; host or cells: HEK293
T1 sequence (P10275 1-920 F877L): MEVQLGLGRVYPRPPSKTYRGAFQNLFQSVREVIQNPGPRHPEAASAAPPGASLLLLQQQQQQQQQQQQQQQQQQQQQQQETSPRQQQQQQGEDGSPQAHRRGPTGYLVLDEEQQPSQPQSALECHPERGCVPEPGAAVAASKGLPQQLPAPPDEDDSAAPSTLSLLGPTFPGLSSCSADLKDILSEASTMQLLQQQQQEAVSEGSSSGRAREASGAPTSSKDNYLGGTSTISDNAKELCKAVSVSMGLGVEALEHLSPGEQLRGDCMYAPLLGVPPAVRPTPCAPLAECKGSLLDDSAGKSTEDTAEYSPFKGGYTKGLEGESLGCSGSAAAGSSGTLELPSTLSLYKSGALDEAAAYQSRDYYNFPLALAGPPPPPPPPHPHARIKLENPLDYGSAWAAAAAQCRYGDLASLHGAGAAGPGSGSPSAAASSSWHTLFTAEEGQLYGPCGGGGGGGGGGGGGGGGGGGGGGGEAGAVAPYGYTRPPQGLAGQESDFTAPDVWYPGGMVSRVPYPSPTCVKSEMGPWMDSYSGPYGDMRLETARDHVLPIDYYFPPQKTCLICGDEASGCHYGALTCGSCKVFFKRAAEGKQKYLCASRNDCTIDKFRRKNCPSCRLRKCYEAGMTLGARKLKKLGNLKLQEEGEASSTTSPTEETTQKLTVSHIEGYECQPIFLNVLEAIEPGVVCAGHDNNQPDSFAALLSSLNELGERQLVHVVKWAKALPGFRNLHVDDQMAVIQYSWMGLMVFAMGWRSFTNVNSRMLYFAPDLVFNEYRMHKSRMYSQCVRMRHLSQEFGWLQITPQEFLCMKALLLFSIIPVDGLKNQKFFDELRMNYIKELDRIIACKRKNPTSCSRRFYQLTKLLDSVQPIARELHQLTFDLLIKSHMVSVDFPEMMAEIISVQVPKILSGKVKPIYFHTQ
Description: HEK293 cells were cultured in DMEM supplemented with 10% FBS and 1% GlutaMax at 37° C. with 5% CO2. The day before transfection, the medium was changed to DMEM containing 10% charcoal-stripped FBS and 1% GlutaMax. […] The cell suspension was diluted with cell seeding solution, and the transfection reagent was added to achieve 500,000 cells/mL. Subsequently, 90 μL of cell suspension was seeded into each well of the assay plate. The next day, compounds were prepared: starting from 8 mM, 3-fold serial dilutions were performed in DMSO for a total of 8 points, then 500 nL was transferred to the compound plate using Echo. The compounds were then diluted with 40 μL of medium to 10× final concentration, and 10 μL was transferred to the cell plate and incubated at 37° C. for 30 minutes. Subsequently, 10 nL of DHT at a final concentration of 10 nM was transferred to each well of the assay plate using TECAN. After 24 hours of incubation, 100 μL of Steady-Glo was added to the assay plate and read on an Envision reader. Data were determined and analyzed using GraphPad Prism.

[5] = system: ACE2; assay: ACE2 mRNA expression in A549 cells (qPCR); type: cell-based
[6] = system: TMPRSS2; assay: TMPRSS2 mRNA expression in A549 cells (qPCR); type: cell-based
[7] = 10 μM, 1 nM DHT, 48 h, Blank = 1

SMILES	Cmax [1]	Kel [1]	MRTPO [1]	T1/2 [1]	tmax [1]	AUC(0-inf) ([1]; rat, plasma)	AUC(0-t) ([1]; rat, plasma)	IC50 [2]	Maximum Inhibition (%) [3]	IC50 [3]	Anti-proliferative activity, fold improvement compared to abiraterone [3]	IC50 [4]	Anti-tumor activity and efficacy compared to enzalutamide ([3]; in words)	Expression of ACE2 protein, in words [5]	ACE2 mRNA level [5, 7]	Expression of TMPRSS2 protein, in words [6]	TMPRSS2 mRNA level [6, 7]	Cmax ([1]; rat, plasma, read-out: Cmax)
Cc1cn(C2=CCC3C4CC=C5C[C@@H](NC(=O)c6ccncc6)CC[C@]5(C)C4CC[C@]23C)cn1 (stereo partly drawn) [Compound 14, N-((3S,10R,13S)-10,13-dimethyl-17-(4-methyl-1H-imidazol-1-yl)-2,3,4,7,8,9,10,11,12,13,14,15-dodecahydro-1H-cyclopenta[a]phenanthren-3-yl)isonicotinamide]	2670 ng/mL	0.252 h⁻¹	5.12 h	2.80 h	2.17 h	24800 ng·h/mL	24800 ng·h/mL	591 nM	99.35%	205 nM	15.8 fold	268 nM						
Cc1cn(C2=CCC3C4CC=C5C[C@@H](NC(=O)c6ccc(F)cc6)CC[C@]5(C)C4CC[C@]23C)cn1 (stereo partly drawn) [Compound 33, N-((3S,10R,13S)-17-(4-methyl-1H-imidazol-1-yl)-10,13-dimethyl-2,3,4,7,8,9,10,11,12,13,14,15-dodecahydro-1H-cyclopenta[a]phenanthren-3-yl)-4-fluorobenzamide]	6431 ng/mL	0.214 h⁻¹	6.03 h	3.28 h	4.00 h	69500 ng·h/mL	68900 ng·h/mL	624 nM	102.9%	478 nM		390 nM	comparable anti-tumor activity but significantly superior anti-tumor efficacy compared to enzalutamide					
Cc1cn(C2=CCC3C4CC=C5C[C@@H](NC(=O)c6ccc(S(C)(=O)=O)cc6)CC[C@]5(C)C4CC[C@]23C)cn1 (stereo partly drawn) [Compound 35, N-((3S,10R,13S)-17-(4-methyl-1H-imidazol-1-yl)-10,13-dimethyl-2,3,4,7,8,9,10,11,12,13,14,15-dodecahydro-1H-cyclopenta[a]phenanthren-3-yl)-4-(methylsulfonyl)benzamide]								651 nM	96.85%	527 nM		326 nM		significantly downregulate	0.102	significantly downregulate	0.394	
Cc1cn(C2=CCC3C4CC=C5C[C@@H](NC(=O)c6ccc(F)cc6F)CC[C@]5(C)C4CC[C@]23C)cn1 (stereo partly drawn) [Compound 37, N-((3S,10R,13S)-17-(4-methyl-1H-imidazol-1-yl)-10,13-dimethyl-2,3,4,7,8,9,10,11,12,13,14,15-dodecahydro-1H-cyclopenta[a]phenanthren-3-yl)-2,4-difluorobenzamide]		0.124 h⁻¹	10.0 h	6.02 h	6.00 h	24500 ng·h/mL	22500 ng·h/mL	452 nM	95.85%	327 nM	8.6 fold	273 nM						1550 ng/mL
